The results in this text go back to ChEMBL document CHEMBL5550137 (Bioorg Med Chem Lett, 2024).

By pIC50 is commonly meant the IC50 on a negative log10 scale, so that one unit is a factor of ten. A word on the solubility: it is the concentration that dissolves in the medium under given conditions. As usually defined, the pKi is −log10 of the Ki, conventionally taken in molar units.

Data set [1] deals with T1, Cytochrome P450 1B1 (Homo sapiens, UniProt Q16678).
T1 sequence (Q16678 whole entry): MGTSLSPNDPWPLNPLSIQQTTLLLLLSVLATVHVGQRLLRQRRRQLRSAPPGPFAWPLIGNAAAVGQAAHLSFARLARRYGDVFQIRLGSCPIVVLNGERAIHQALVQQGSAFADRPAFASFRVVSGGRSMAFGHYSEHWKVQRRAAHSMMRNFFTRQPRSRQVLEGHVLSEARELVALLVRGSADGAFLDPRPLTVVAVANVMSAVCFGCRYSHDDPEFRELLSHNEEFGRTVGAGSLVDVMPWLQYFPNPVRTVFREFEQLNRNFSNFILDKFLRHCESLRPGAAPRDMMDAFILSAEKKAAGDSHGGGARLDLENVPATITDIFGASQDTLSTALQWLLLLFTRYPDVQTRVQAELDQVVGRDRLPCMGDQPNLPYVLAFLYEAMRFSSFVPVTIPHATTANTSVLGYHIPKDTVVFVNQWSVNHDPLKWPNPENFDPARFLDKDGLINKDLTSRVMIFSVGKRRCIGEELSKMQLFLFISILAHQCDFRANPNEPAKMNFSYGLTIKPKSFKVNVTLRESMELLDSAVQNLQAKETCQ
Put plainly: Inhibition of recombinant human CYP1B1 using 7-ER as substrate in presence of NADPH by fluorescence based assay.

A short description of data set [2]: Solubility in water by HPLC-UV analysis. The data set is classed as physicochemical.
Data set [3] addresses T1, Cytochrome P450 1B1. Put plainly: Inhibition of recombinant human CYP1B1 using 7-ER as substrate measured after 33 mins in presence of NADPH by fluorescence based assay. The settings on record: 0.55 h.
The target in data set [4] is T1, Cytochrome P450 1B1. Put plainly: Inhibition of human CYP1B1 over-expressed in CHO cells preincubated for 3 hrs followed media replacement containing estradiol without compound measured after 3 hrs. The data set is classed as cell-based.
The target in data set [5] is T1, Cytochrome P450 1B1. Put plainly: Mixed inhibition of recombinant human CYP1B1 using 7-ER as substrate in presence of NADPH by fluorescence based assay.
The subject of data set [6] is HEK-293T. Put plainly: Cytotoxicity against HEK293T cells expressing AhR/luc incubated for 48 hrs by CCK8 assay. The data set is classed as toxicity, cell-based. Conditions: human. A general note: Tetrazolium assays rely on reduction of a dye to a coloured formazan, in cell work by metabolically active cells; call rule not given here.
The test system of data set [7] is NCI-H460. Put plainly: Anti-cancer activity of human PTX-resistant NCI-H460 cells incubated for 48 hrs by CCK8 assay. The data set is classed as functional, cell-based. The settings on record: NCI-H460, 48 h.

pIC50, pKi: −log10 of the molar value. ≈ marks a conversion by molar mass, not a printed value.

With `O=C1c2cccc3c(Br)ccc(c23)C(=O)N1Cc1ccccc1`, the negative-log IC50 (pIC50) in data set [1] is 8.71.

Regarding `O=C1c2cccc3c(Br)ccc(c23)C(=O)N1Cc1ccon1`, the pIC50 in data set [1] is 7.37.

Consider `O=C1c2cccc3c(Br)ccc(c23)C(=O)N1Cc1ncco1`, for which the pIC50 in data set [1] is 7.51.

Turning to `O=C1c2cccc3c(Br)ccc(c23)C(=O)N1Cc1ncccn1`, in data set [1], the pIC50 was 7.04.

For the molecule `O=C1c2cccc3c(Br)ccc(c23)C(=O)N1CC1CN(Cc2ccccc2)CCO1` (stereo unspecified), the pIC50 in data set [1] is less than 6.00.

For `O=C1c2cccc3c(Br)ccc(c23)C(=O)N1Cc1nccs1`, the negative logarithm of the IC50 (pIC50) in data set [1] was 7.43.

For `O=C1c2cccc3c(Br)ccc(c23)C(=O)N1CC1CCCC1`, the pIC50 in data set [1] is 7.93.

As to `O=C1c2cccc3c(Br)ccc(c23)C(=O)N1Cc1ccc[nH]1`, the pIC50 in data set [1] was 9.41.

For the molecule `O=C1c2cccc3c(Br)ccc(c23)C(=O)N1Cc1ccccn1`, the pIC50 in data set [1] was 6.83.

Regarding `O=C1c2cccc3c(Br)ccc(c23)C(=O)N1Cc1ccncn1`, in data set [1], the pIC50 was 7.64.

Regarding `O=C1c2cccc3c(O)ccc(c23)C(=O)N1Cc1cncnc1`, the pIC50 in data set [1] is 7.25.

Molecule `Cl.O=C1c2cccc3c(Br)ccc(c23)C(=O)N1Cc1cncnc1` displayed a solubility in data set [2] of 262 µg/mL.

On to `O=C1c2cccc3c(Br)ccc(c23)C(=O)N1Cc1cccs1`, for which, in data set [1], the negative logarithm of the IC50 (pIC50) was 8.47.

Turning to `O=C1c2cccc3c(Br)ccc(c23)C(=O)N1CC1CCCCC1`, the pIC50 in data set [1] was 8.10.

For `CCN1C(=O)c2cccc3c(O)ccc(c23)C1=O`, in data set [1], the negative logarithm of the IC50 (pIC50) is less than 6.00.

With `O=C1c2cccc3c(Br)ccc(c23)C(=O)N1Cc1cc[nH]n1`, the pIC50 in data set [1] was 7.75.

With `O=C1c2cccc3c(Br)ccc(c23)C(=O)N1Cc1cn[nH]c1`, the pIC50 in data set [1] was 9.68.

On to `O=C1c2cccc3c(Br)ccc(c23)C(=O)N1CCCCc1ccccc1`, for which, in data set [1], the pIC50 was 7.24.

As to `CCN1C(=O)c2cccc3ccc(Br)c(c23)C1=O`, the pIC50 in data set [1] was 8.45.

Regarding `O=C1c2cccc3c(Br)ccc(c23)C(=O)N1CC1CCC1`, the pIC50 in data set [1] was 8.44.

As for `CCN1C(=O)c2cccc3c(Br)ccc(c23)C1=O`, the solubility in data set [2] is 103 µg/mL (≈ 340 µM). In addition, the pIC50 in data set [1] was 8.25.

On to `O=C1c2cccc3c(Br)ccc(c23)C(=O)N1Cc1ccc2ncccc2c1`, for which, in data set [1], the pIC50 was 7.52.

Consider `O=C1c2cccc3c(Br)ccc(c23)C(=O)N1Cc1ccncc1`, for which the pIC50 in data set [1] was 8.85.

Regarding `Nc1ccc2c3c(cccc13)C(=O)N(Cc1cncnc1)C2=O`, the pIC50 in data set [1] is 7.17.

In the case of `O=C1c2cccc3c(Br)ccc(c23)C(=O)N1CC1CC1`, the pIC50 in data set [1] was 7.72.

As to `O=C1c2cccc3c(Br)ccc(c23)C(=O)N1CCCc1ccccc1`, the pIC50 in data set [1] is 7.77.

For the molecule `O=C1c2cccc3c(Br)ccc(c23)C(=O)N1Cc1cnccn1`, the pIC50 in data set [1] is 6.81.

For `CCN1C(=O)c2cccc3cc(Br)cc(c23)C1=O`, the pIC50 in data set [1] is 8.27.

For `O=C1c2cccc3c(Br)ccc(c23)C(=O)N1Cc1cncnc1`, the “inhibition (INH)” value in data set [3] is reported as “Not Active”. The negative logarithm of the IC50 (pIC50) was 9.33 in data set [4] and 10.40 in data set [1]. Moreover, in data set [5], the pKi was 10.66. In addition, the Activity entry in data set [6] is on record as “Non-Toxic”.

In the case of `CCN1C(=O)c2cccc3cccc(c23)C1=O`, in data set [1], the pIC50 was 6.22.

Regarding `O=C1c2cccc3c(Br)ccc(c23)C(=O)N1CC1Oc2ccccc2O1`, the pIC50 in data set [1] was 7.92.

As for `O=C1c2cccc3c(Br)ccc(c23)C(=O)N1Cc1c[nH]cn1`, in data set [1], the pIC50 is 6.76.

As to `O=C1c2cccc3c(Br)ccc(c23)C(=O)N1Cc1cccnc1`, in data set [1], the pIC50 was 8.74.

On to `O=C1c2cccc3c(Br)ccc(c23)C(=O)N1CCc1ccccc1`, for which, in data set [1], the pIC50 is 8.27.

For `O=C1c2cccc3cccc(c23)C(=O)N1Cc1cncnc1`, the pIC50 in data set [1] is 6.66.

The molecule `CC(=O)O[C@H]1C(=O)[C@@]2(C)[C@H]([C@H](OC(=O)c3ccccc3)[C@]3(O)C[C@H](OC(=O)[C@H](O)[C@@H](NC(=O)c4ccccc4)c4ccccc4)C(C)=C1C3(C)C)[C@]1(OC(C)=O)CO[C@@H]1C[C@@H]2O` [PACLITAXEL] had a pIC50 in data set [7] of 6.20.
